Reference: patent US9545395B2, “Method and composition for enhancement of male erectile function” (priority 2008, dated 2017)

Tested on: male erectile function (penis)
Experiment: Clinical observations and case reports (Patients A-G): erectile response of men after local or systemic application
Format: in vivo, man
Conditions: for persistence of improvements after the last injection: after last IGF1 injection
[1] = Patient C, severe erectile dysfunction, maximal doses, before treatment
[2] = Patient C, maximal oral doses with daily topical androgens
[3] = Patient D, maximal oral doses combined with intracavernosal injections, before local IGF1
[4] = Patient D, oral medication without intracavernosal injections, after local IGF1
[5] = Patient D, oral medications, baseline
[6] = Patient G, oral medication, baseline
[7] = Patient E, four weekly IGF1 injections plus 2.5% testosterone cream

Which “erectile response” value [1] does the source give for CN1CC(=O)N2[C@H](c3ccc4c(c3)OCO4)c3[nH]c4ccccc4c3C[C@@H]2C1=O [Cialis] here?
The value was “not having any erections”.

And the “erectile response” value [2]?
Its value is “still could not function”.

What about the “erectile response” value [3] of the same compound?
Its value is “frequently going soft during intercourse”.

What about the “erectile response” value [4] of the same compound?
The value was “getting usable erections”.

And the “erectile response” value [5]?
The value was “not responding”.

And the “erectile response” value [6]?
Its value is “not able function sexually”.

Which results are given for CCCc1nc(C)c2c(=O)[nH]c(-c3cc(S(=O)(=O)N4CCN(CC)CC4)ccc3OCC)nn12 [Levitra]?
erectile response [1]: not having any erections; erectile response [2]: still could not function; erectile response [3]: frequently going soft during intercourse; erectile response [4]: getting usable erections; erectile response [5]: not responding; erectile response [6]: not able function sexually

What does the source list for C[C@]12CC[C@H]3[C@@H](CCC4=CC(=O)CC[C@@]43C)[C@@H]1CC[C@@H]2O [Testosterone]?
erectile function after about a month (Patient B, 10 mg Testosterone + 6 mcg LR3 IGF1 + 6 mcg PGE1 IC, 2-3 times per week): able to have sexual intercourse without any medications; erectile response (Patient B, 10 mg Testosterone added to IC mixture of 6 mcg LR3 IGF1 plus 6 mcg PGE1, 2-3 times per week): dramatically harder and firmer erections

CCCc1nn(C)c2c(=O)[nH]c(-c3cc(S(=O)(=O)N4CCN(C)CC4)ccc3OCC)nc12 [Viagra] was tested. Which “erectile response” value [1] did it give?
Its value is “not having any erections”.

And the “erectile response” value [2]?
The value was “still could not function”.

What about the “erectile response” value [3] of the same compound?
The value was “frequently going soft during intercourse”.

And the “erectile response” value [4]?
Its value is “getting usable erections”.

What about the “erectile response” value [5] of the same compound?
Its value is “not responding”.

And the “erectile response” value [6]?
Its value is “not able function sexually”.

How did the erection firmness (Patient A (person one), 1.5 ug prostaglandin E1 intracavernosally alone) turn out when CCCCC[C@H](O)/C=C/[C@H]1[C@H](O)CC(=O)[C@@H]1CCCCCCC(=O)O [prostaglandin E1] was run?
Its erection firmness is 70-75%.

What about the erection firmness (Patient B, venous leakage, 6 ug prostaglandin E1 intracavernosally alone) of the same compound?
The erection firmness was 60%.

What about the duration of erection (Patient B, 6 ug prostaglandin E1 intracavernosally alone) of the same compound?
Its duration of erection is “about 30 mins”.

And the “erectile response” value (Patient C, maximum doses of PGE1 40 ug/ml plus triple mix papavarine, atropine, phentolamine)?
Its value is “unable to obtain a usable erection”.

For “Growth Hormone: Growth Hormone injections daily (Human Growth Hormone)”, which “erectile function” value (Patient D, daily Growth Hormone injections, 1 year) is on record?
Its value is “did not report a significant improvement in their erectile function”.

For “IGF1: IGF-1 (Somatomedin-C), full length protein of 70 amino acids in a single chain with three intramolecular disulfide bridges”, which “erectile response” value (Patient C, 10-20 ug IGF-1 or 6-10 ug LR3 IGF1 sub-cutaneously plus topical 1% testosterone gel, 3-4 times per week, one month) is on record?
Its value is “erections dramatically improved”.

And the “reduction of intracavernosal medication dose” value (Patient D, after penile and intracavernosal IGF1 (5-10 ug combined with intracavernosal injections))?
The value was “over 50%”.

And the “erectile function” value (Patient D, some of the daily 50-100 ug IGF1 injections applied intermittently into the penis)?
Its value is “immediately experienced improved erectile function”.

What about the “erectile response” value (Patient D, systemic IGF1 50-100 ug/day subcutaneously in abdomen, with intracavernosal meds) of the same compound?
The value was “not getting adequate erections”.

And the “persistence of improvements after the last injection” value (Patient E)?
Its value is “persisted for several weeks”.

What about the “duration of erection after an intracavernosal injection” value [7] of the same compound?
Its value is “over 40 minutes”.

What about the “hardness of erection after an intracavernosal injection” value [7] of the same compound?
The value was “over 80%”.

And the “erectile function” value (Patient E, four weekly subcutaneous IGF1 injections into penis shaft plus 2.5% testosterone cream twice daily)?
Its value is “dramatically improved the patient's erectile function”.

And the “persistence of improvements after the last injection” value (Patient G)?
The value was “persist for several weeks”.

What about the “erectile function” value (Patient G, twice weekly subcutaneous 25 ug IGF1 into penis shaft, after Dihydrotestosterone cream) of the same compound?
Its value is “immediately began experiencing firmer spontaneous erections”.

And the “time to functional erections without the need for PDE5's” value (men relying on PDE5's, higher locally applied penile doses)?
Its value is 1-2 weeks.

What about the “time after discontinuation until improvement noticeably started weakening” value (men who had used only a couple of doses, essentially gone after a month) of the same compound?
The value was 1-2 weeks.

And the “erectile function” value (men, 50-100 μg once per week sub-cutaneously or subdermally in the penis)?
The value was “dramatic improvement in their erectile function”.
